# Laboratory results from paper PMC2728841, “The Crystal Structure of the Escherichia coli Autoinducer-2 Processing Protein LsrF” (PLoS ONE, 2009).
# Biological target: T1, LsrF (Escherichia coli, UniProt P76143)
# T1 construct: His6-MBP fusion (pDEST-HisMBP) made in E. coli BL21, tag cut with TEV protease; decamer; model lacks residues 1-9, 177-180, 290-291
# Test: X-ray crystallography, crystal soak, […] Å
# Format: binding
# Conditions: 100 mM ligand soak, 5 min, 100 mM Tris pH 8.0, 100 mM MgCl2, 27.5% PEG 400; aldolase active site; non-covalent model
# T1 sequence (P76143 whole entry, the tested form may be a part): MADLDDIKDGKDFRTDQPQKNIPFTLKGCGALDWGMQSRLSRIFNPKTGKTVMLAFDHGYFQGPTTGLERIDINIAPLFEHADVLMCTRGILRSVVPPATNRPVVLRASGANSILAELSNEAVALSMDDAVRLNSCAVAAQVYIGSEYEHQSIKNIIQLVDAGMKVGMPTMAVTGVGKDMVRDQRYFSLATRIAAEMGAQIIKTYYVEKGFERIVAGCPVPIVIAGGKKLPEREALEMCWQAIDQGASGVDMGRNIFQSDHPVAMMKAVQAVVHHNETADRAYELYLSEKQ
structure (smiles),measurement,value
O=P(O)(O)OC[C@H]1OC(O)[C@H](O)[C@@H]1O (stereo partly shown) [ribose-5-phosphate],"X-ray crystallography, crystal soak, 2.5 Å",The final model included one ribose-5-phosphate per chain
